Reference: article PMC8632694 (Frontiers in Pharmacology, 2021)
Entries after “also recorded” stand apart in the source; their conditions may differ. Where two headings read alike, the source gives them in different places. Blank lines part the entries; values can stand above or below the molecule they belong to.

Columns and labels:
[1] = Safety and tolerability: treatment-emergent adverse events by intervention; type: in vivo, human; details: for number of TEAEs (all) / number of subjects with TEAEs / percentage of subjects with TEAEs: per intervention (R1 31, R2 28, T 30, V 29 subjects), T and V co-administered with atorvastatin; for subjects who discontinued the study due to AEs: neutropenia in intervention T, blood creatine phosphokinase increased in intervention R
Description: Safety was assessed based on symptom reports, physical examinations, vital signs, 12-lead ECGs, and clinical laboratory tests (hematology, clinical chemistry, and urinalysis).

[2] = Serum gastrin, pepsinogen I and II levels pre-dose and 24 h after 7 days of administration; type: in vivo, human; details: co-administered with atorvastatin for 7 days; compared to the baseline
Excerpt: Error bars represent standard errors. The increase of serum levels in each intervention was compared to the intervention R. P-values were adjusted by Tukey-Kramer method; *p < 0.05; **p < 0.001.

[3] = tested on: CYP3A4; assay: CYP3A4 inhibition in vitro (literature values); type: biochemical; details: ref Nishihara et al., 2019, HK inno.N Corp
[4] = tested on: CYP3A4; parameters: method as in Nishihara et al., 2019; HK inno.N Corp; details: in vitro; ref Nishihara et al., 2019; HK inno.N Corp; cited from earlier work
[5] = tested on: OATP1B1; details: cited from earlier work
[6] = when absorbed through the intestine; ref Lennernäs, 2003; cited from earlier work
[7] = Steady-state plasma pharmacokinetics of atorvastatin, 2-hydroxyatorvastatin and atorvastatin lactone after atorvastatin 40 mg once daily for 7 days, alone or co-administered with tegoprazan 50 mg or vonoprazan 20 mg; details: for Css,max / Tss,max / AUCτ: N = 28; for Css,max / AUCτ / Metabolic ratio (AUCmetabolite/AUCatorvastatin): mean ± SD; for Tss,max: plasma, median (minimum-maximum); for Css,max, GMR (90% CI): ratio of atorvastatin co-administered with tegoprazan to administered alone
[8] = human, in vivo
[9] = clinical; details: human, in vivo, AUCτ
[10] = tested on: CYP3A4; assay: Estimated intestinal luminal concentration of vonoprazan compared with the CYP3A4 IC50; details: vonoprazan 20 mg orally administered
[11] = TEAE, intervention arm = label, P-CAB arms co-administered with atorvastatin 40 mg, 7 days
[12] = Atorvastatin alone (N = 28 for each intervention), comparison with tegoprazan
[13] = Atorvastatin alone (N = 28 for each intervention), comparison with vonoprazan
[14] = Reference 1: first intervention, atorvastatin 40 mg alone 7 days
[15] = Reference 2: second intervention, atorvastatin 40 mg alone 7 days
[16] = atorvastatin 40 mg co-administered with tegoprazan 50 mg 7 days
[17] = atorvastatin 40 mg co-administered with vonoprazan 20 mg 7 days
[18] = atorvastatin co-administered with vonoprazan compared to atorvastatin alone
[19] = TEAE, serum gastrin greater than 200 ng/L, intervention arm = label, co-administered with atorvastatin 40 mg, 7 days

expected plasma concentration at clinical doses relative to the CYP3A4 IC50 (fold lower) [3]: 25 fold
SMILES: Cc1nc2cc(C(=O)N(C)C)cc(O[C@H]3CCOc4cc(F)cc(F)c43)c2[nH]1 [Tegoprazan, tegoprazan]
Blood bilirubin increased: number of events [1, 11]: 2
Blood bilirubin increased: number of subjects [1, 11]: 2
Blood bilirubin increased: percentage of subjects [1, 11]: 6.7%
Neutrophil count decreased: number of events [1, 11]: 1
Neutrophil count decreased: number of subjects [1, 11]: 1
Neutrophil count decreased: percentage of subjects [1, 11]: 3.3%
Ocular discomfort: number of events [1, 11]: 1
Ocular discomfort: number of subjects [1, 11]: 1
Ocular discomfort: percentage of subjects [1, 11]: 3.3%
Pyuria: number of events [1, 11]: 1
Pyuria: number of subjects [1, 11]: 1
Pyuria: percentage of subjects [1, 11]: 3.3%
subjects who discontinued the study due to AEs [1]: 1
number of TEAEs (all) [1]: Ten
number of subjects with TEAEs [1]: 7
percentage of subjects with TEAEs [1]: 23.3%
increase in serum pepsinogen I [2]: 2.7 times
increase in serum pepsinogen II [2]: 2.2 times
increase of serum gastrin [2]: 1.2 times
IC50 [4]: > 30 µM
inhibitory activity on OATP1B1 ([5]; in vitro / non-clinical study, ref HK inno.N Corp): showed the inhibitory activity on some OATP1B1 substrates; also recorded: showed various inhibitory activities

Css,max, geometric least squares mean [7, 12]: 32.4 ng/mL
Css,max, geometric least squares mean [7, 13]: 32.4 ng/mL
Css,max [7, 14]: 37.21 ± 19.65 ng/mL
Tss,max ([7]; Reference 1: first intervention, atorvastatin 40 mg alone once daily 7 days): 0.75 (0.50–6.00) h
Css,max [7, 15]: 37.37 ± 22.81 ng/mL
Tss,max ([7]; Reference 2: second intervention, atorvastatin 40 mg alone once daily 7 days): 0.75 (0.50–3.00) h
Css,max, geometric least squares mean ([7]; With Tegoprazan (N = 28)): 35.4 ng/mL
Css,max, geometric least squares mean ([7]; With Vonoprazan (N = 28)): 37.9 ng/mL
Css,max [7, 16]: 40.75 ± 21.52 ng/mL
Tss,max ([7]; atorvastatin 40 mg co-administered with tegoprazan 50 mg once daily 7 days): 1.25 (0.50–3.00) h
Css,max [7, 17]: 42.71 ± 25.76 ng/mL
Tss,max ([7]; atorvastatin 40 mg co-administered with vonoprazan 20 mg once daily 7 days): 1.50 (0.50–4.00) h
Increase of Css,max ([7]; atorvastatin co-administered with tegoprazan, not statistically significant): 9%
Increase of Css,max [7, 18]: 17%
Css,max, GMR (90% CI) [7]: 1.09 (0.97–1.23)
within-subject CV of Css,max ([7]; this study, multiple doses for 7 days (data not shown)): 33.6%
SMILES: CC(C)c1c(C(=O)Nc2ccccc2)c(-c2ccccc2)c(-c2ccc(F)cc2)n1CC[C@@H](O)C[C@@H](O)CC(=O)O [Atorvastatin, atorvastatin]
subjects who discontinued the study due to AEs [1]: 1
fraction of orally administered dose lost in the gut [6]: 76%

AUCτ, geometric least squares mean [8]: 67.3 ng·h/mL
AUCτ ([8]; 40 mg): 57.36 ± 28.51 ng·h/mL
AUC ([9]; 40 mg): 61.1 ± 30.2 ng·h/mL
AUC ([9]; geometric least squares mean): 52.1 ng·h/mL
SMILES: CC(C)c1c(C(=O)Nc2ccccc2)c(-c2ccccc2)c(-c2ccc(F)cc2)n1CC[C@@H]1C[C@@H](O)CC(=O)O1 [Atorvastatin lactone, atorvastatin lactone]

Continued, molecule first:

SMILES: CC(C)c1c(C(=O)Nc2ccccc2)c(-c2ccccc2)c(-c2ccc(F)cc2)n1CC[C@@H](O)C[C@@H](O)CC(=O)O [Reference 2, atorvastatin]
Anaemia: number of events [1, 11]: 1
Anaemia: number of subjects [1, 11]: 1
Anaemia: percentage of subjects [1, 11]: 3.6%
Blood bilirubin increased: number of events [1, 11]: 2
Blood bilirubin increased: number of subjects [1, 11]: 2
Blood bilirubin increased: percentage of subjects [1, 11]: 7.1%
Pyuria: number of events [1, 11]: 1
Pyuria: number of subjects [1, 11]: 1
Pyuria: percentage of subjects [1, 11]: 3.6%
number of TEAEs (all) ([1]; listed as intervention R2): 8
number of subjects with TEAEs ([1]; listed as intervention R2): 7

SMILES: CNCc1cc(-c2ccccc2F)n(S(=O)(=O)c2cccnc2)c1 [Vonoprazan, vonoprazan]
Hypergastrinaemia: percentage of subjects [1, 19]: 20.7%
Blood bilirubin increased: number of events [1, 11]: 1
Blood bilirubin increased: number of subjects [1, 11]: 1
Dyspepsia: number of events [1, 11]: 2
Dyspepsia: number of subjects [1, 11]: 2
Headache: number of events [1, 11]: 2
Headache: number of subjects [1, 11]: 2
Neutrophil count decreased: number of events [1, 11]: 2
Neutrophil count decreased: number of subjects [1, 11]: 2
Pyuria: number of events [1, 11]: 2
Pyuria: number of subjects [1, 11]: 2
occurrence of hypergastrinemia (serum gastrin level greater than 200 ng/L) ([1]; across the interventions): only occurred when atorvastatin was co-administered with vonoprazan
number of TEAEs (all) [1]: 17
percentage of subjects with TEAEs [1]: 51.7%
inhibition of OATP1B1 ([5]; in vitro study, ref Pharmaceuticals and Medical Devices Agency, 2014): did not inhibit OATP1B1

SMILES: CC(C)c1c(C(=O)Nc2ccccc2)c(-c2ccccc2)c(-c2ccc(F)cc2)n1CC[C@@H](O)C[C@@H](O)CC(=O)O [Reference 1, atorvastatin]
Anaemia: number of events [1, 11]: 1
Anaemia: number of subjects [1, 11]: 1
Anaemia: percentage of subjects [1, 11]: 3.2%
Blood bilirubin increased: number of events [1, 11]: 1
Blood bilirubin increased: number of subjects [1, 11]: 1
Blood bilirubin increased: percentage of subjects [1, 11]: 3.2%
Ocular discomfort: number of events [1, 11]: 1
Ocular discomfort: number of subjects [1, 11]: 1
Ocular discomfort: percentage of subjects [1, 11]: 3.2%
Pyuria: number of events [1, 11]: 1
Pyuria: number of subjects [1, 11]: 1
Pyuria: percentage of subjects [1, 11]: 3.2%
number of TEAEs (all) [1]: Seven
number of subjects with TEAEs [1]: 6
percentage of subjects with TEAEs [1]: 19.4%

SMILES: CC(C)c1c(C(=O)Nc2ccccc2O)c(-c2ccccc2)c(-c2ccc(F)cc2)n1CCC(O)CC(O)CC(=O)O (centres unmarked) [2-hydroxyatorvastatin]
AUCτ, geometric least squares mean [7, 12]: 137.9 ng·h/mL
Css,max, geometric least squares mean [7, 12]: 22.5 ng/mL
AUCτ, geometric least squares mean [7, 13]: 138.2 ng·h/mL
Css,max, geometric least squares mean [7, 13]: 22.7 ng/mL
AUCτ [7, 14]: 152.04 ± 70.25 ng·h/mL
Css,max [7, 14]: 24.95 ± 11.77 ng/mL
Metabolic ratio (AUCmetabolite/AUCatorvastatin) [7, 14]: 1.27 ± 0.52
AUCτ [7, 15]: 144.35 ± 58.71 ng·h/mL
Css,max [7, 15]: 25.72 ± 17.15 ng/mL
Metabolic ratio (AUCmetabolite/AUCatorvastatin) [7, 15]: 1.32 ± 0.55
AUCτ, geometric least squares mean ([7]; With Tegoprazan (N = 28)): 144.8 ng·h/mL
Css,max, geometric least squares mean ([7]; With Tegoprazan (N = 28)): 23.8 ng/mL
AUCτ, geometric least squares mean ([7]; With Vonoprazan (N = 28)): 125.1 ng·h/mL
Css,max, geometric least squares mean ([7]; With Vonoprazan (N = 28)): 15.91 ng/mL
AUCτ [7, 16]: 156.46 ± 67.69 ng·h/mL
Css,max [7, 16]: 26.34 ± 12.64 ng/mL
Metabolic ratio (AUCmetabolite/AUCatorvastatin) [7, 16]: 1.31 ± 0.47
AUCτ [7, 17]: 135.57 ± 64.05 ng·h/mL
Css,max [7, 17]: 18.19 ± 12.16 ng/mL
Metabolic ratio (AUCmetabolite/AUCatorvastatin) [7, 17]: 0.90 ± 0.32
Decrease of AUCτ [7, 18]: 9%
Decrease of Css,max [7, 18]: 30%
Css,max, GMR (90% CI) [7]: 1.06 (0.95-1.17)
